Experimental findings from US20080311126A1, “Antisense Oligonucleotides Directed to Ribonucleotide Reducatase R2 and Uses Thereof in Combination Therapies for the Treatment of Cancer” (Genesense Technologies, Inc, priority 2004, published 2008) are described below.

“Also recorded” adds a separate entry of the source.

Data set [1] relates to MDA-CDDP-S4 human Cisplatin-resistant breast adenocarcinoma cells. Nature of the data set: MDA-CDDP-S4 Cisplatin-resistant breast adenocarcinoma, fat pad injection in SCID mice. The data set is classed as in vivo. Conditions: for Tumour weight as % of saline control: MDA-CDDP-S4 (breast), Cisplatin resistance, SCID. The method, then: MDA-CDDP-S4 human in vivo-selected Cisplatin-resistant breast adenocarcinoma cells (4×10^6 cells in 100 μl of PBS) were injected into the fat pad (inside of right leg) of 6-7 weeks old female SCID mice. After the size of tumour reached an approximate volume of 100 mm^3, 7 days post tumour cell injection, SEQ ID NO:1 was administered by bolus infusion into the tail vein every other day at 10 mg/kg 9 times. Control animals received saline alone for the same period. Antitumour effect of SEQ ID NO: 1 was further compared to that of Cisplatin or Taxol alone. Cisplatin was adminstered intravenously once a week for three weeks at a dose of 4 mg/kg. Taxol was administered intravenously once a week for three weeks at a dose of 10 mg/kg. Antitumour activities were estimated by the inhibition of tumour volume, which was measured with caliper. Each point represents mean tumour volume calculated from 10 animals per experimental group. […] As expected, treatment with Cisplatin during the same period was ineffective against Cisplatin-resistant tumour.
MDA-CDDP-S4 human in vivo-selected Cisplatin-resistant breast adenocarcinoma cells (4×10^6 cells in 100 μl of PBS) were injected into the fat pad (inside of right leg) of 6-7 weeks old female CB-17 SCID mice. After the size of tumour reached an approximate volume of 100 mm^3, 9 days post tumour cell injection, SEQ ID NO:1 was administered by bolus infusion into the tail vein every other day at 10 mg/kg. Control animals received saline alone for the same period. Antitumour effect of SEQ ID NO:1 was further compared to that of Taxol alone and in combination. Taxol was administered i.p. once a week at a dose of 10 mg/kg. Antitumour activities were estimated by the inhibition of tumour volume FIG. 22A), which was measured with calipers. Each point represents mean tumour volume calculated from 10 animals per experimental group. Animals were sacrificed and tumour weights taken at the end of the study (FIG. 22C). […] This study was repeated with similar results (FIG. 22B).

The subject of data set [2] is A498 human renal carcinoma. As to the kind of experiment: A498 renal tumour xenograft in SCID mice, SEQ ID NO:1 and interferon alpha. It counts as in vivo. The method, then: Cell line: Human renal carcinoma cell line (A498) was grown as monolayer culture in Minimum essential medium (α-MEM) supplemented with 10% fetal bovine serum (FBS), 0.1 mM non-essential amino acid, 1.0 mM sodium pyruvate, 100 U/ml penicillin, 100 μg/ml streptomycin and 0.25 μg/ml amphotericin B and 2 mM L-alanyl-1-glutamine at 37° C. in an atmosphere of 5% CO2 in air. The tumour cells were routinely subcultured twice weekly by trypsin-EDTA treatment. The cells were harvested from subconfluent logarithmically growing culture by treatment with trypsin-EDTA and counted for tumour inoculation.
Tumour Inoculation: An acclimation period of at least 7 days was allowed between animal receipt and commencement of tumour inoculation. When the female SCID mice were 6-7 weeks of age (20-25 g), each mouse was subcutaneously injected with 9×10^6 A498 human renal carcinoma cells in 0.1 ml of PBS at the right flank of the mice to induce tumour growth.
Dose Preparation and Treatment: The dose for SEQ ID NO:1 was formulated using the following procedure. From a concentrated stock solution (usually prepared in ddH2O at a concentration of 50 mg/ml and kept at −80° C.), SEQ ID NO:1 was diluted with saline to achieve a final target concentration of 1 or 2.5 mg/ml on the first day of dosing. Enough SEQ ID NO:1 was diluted so that the compound could be administered by bolus infusion into the tail vein every other day for the duration of the experiment. Recombinant interferon alfa-2b (ntron A™) was employed according to the dose and treatment schedules below. The treatments were started 20 days after the tumour cell inoculation when the tumour size reached an approximate volume of 200 mm^3. Each treatment group contained 10 tumour-bearing mice. Routes of administration are as follows: intravenous (i.v.) and intratumoural (i.t.).
• 1. Saline treated group-1: saline 0.1 ml/mouse/48 hours, i.v., n=10 • 2. Saline treated group-2: saline 0.05 ml/mouse/5 days/week, i.t., n=10 • 3. SEQ ID NO:1 treated group: 1 mg/kg/48 hours in 0.1 ml saline, i.v. n=10 • 4. SEQ ID NO:1 treated group: 2.5 mg/kg/48 hours in 0.1 ml saline, i.v., n=10 • 5. […]
Treatment started from day 20 after inoculation of human renal tumour cells. […]
Endpoints: The effects of SEQ ID NO:1 and Intron A on tumour growth was determined. Tumour sizes were measured every week from day 20 after the tumour cell inoculation in two dimensions using a caliper, and the volume was expressed in mm^3 using the formula: V=0.5 a×b^2, where a and b are the long and short diameters of the tumour, respectively. Mean tumour volumes calculated from each measurement were then plotted in a standard graph to compare the anti-tumour efficacy to that of controls. A day after the last treatment, tumours were excised from the animals and their weights were measured. […]

The nature of data set [3]: Phase I single agent study of SEQ ID NO:1 in patients with solid tumours or melanoma. It counts as in vivo, human.
The subject of data set [4] is Human Colon Adenocarcinoma. As to the kind of experiment: Tumour growth assay, human colon adenocarcinoma in CD-1 nude mice. The data set is classed as in vivo.

Consider “GGCTAAATCGCTCCACCAAG (chemistry not given here) [SEQ ID NO: 1, antisense oligonucleotide that hybridizes to the coding region of human ribonucleotide reductase R2 mRNA]”, for which, in data set [1] (Example 13.3, SEQ ID NO:1 10 mg/kg 9 times, Cisplatin 4 mg/kg, Taxol 10 mg/kg i.v. weekly for three weeks), the “antitumour effect (tumour volume)” value is recorded as “significant reduction of tumour weight”. The “antitumour effect (tumour volume, tumour weight)” value in data set [1] (Example 13.4, CB-17 SCID mice, SEQ ID NO:1 10 mg/kg every other day, Taxol 10 mg/kg i.p. weekly) is “significant reduction of tumour weight; also recorded: superior to the inhibitory effects observed with Taxol”. Also, the “Tumour weight as % of saline control” value in data set [1] (Taxol combination study, first of two value columns) is 18%; in data set [1] (Taxol combination study, second of two value columns), 41%; in data set [1] (study with Taxol and Cisplatin alone), 32%. Moreover, the “anti-tumour efficacy (tumour volume, tumour weight)” value in data set [2] (Example 6, SEQ ID NO:1 1 or 2.5 mg/kg/48 hours i.v., Intron A 10^3 or 10^5 unit 5 days/week i.t.) is on record as “significant anti-tumour efficacy”; in data set [2] (Example 7, SEQ ID NO:1 2.5 mg/kg/2ds i.v., 10000 units Intron A x5/week for 2 weeks i.t.), “significant anti-tumour efficacy”. For the same sequence, in data set [3] (human subjects), the “dose with no evidence of toxicity” value came to 148.0 mg/m^2/day. Also, in data set [3] (patients with solid tumours or melanoma), the “maximum tolerated dose (MTD)” value is 222.0 mg/m^2/day. The “Inhibition of tumour size” value in data set [4] (CD-1 nude mice, Day 18 after tumour implantation) is “mice by approximately 80% on Day 18”. In data set [4] (CD-1 nude mice, doses of 1.0 to 6.0 mg/kg), the “dose dependence of decrease in tumour weight” value is given as “Dose-dependent decrease in tumour”. In data set [4] (Human Colon Adenocarcinoma), the “Inhibition of tumour weight” value is reported as “approximately 80%”.
